The values below come from PubChem BioAssay (NCI).

What all share (test): NCI tumour cell line growth inhibition, 48 h
The test system of test [1] is DLD-1 colon.
The test system of test [2] is HCC-2998 colon.
Test [3] concerns HCT-15 colon.
The test system of test [4] is K-562 leukemia.
Test [5] deals with KM20L2 colon.
The subject of test [6] is MALME-3M melanoma.
For test [7], the system named is SK-MEL-2 melanoma.
For test [8], the system named is SN12C renal.
Test [9] has as its system UACC-257 melanoma.
In test [10] the test system is BT-549 breast.

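Growth conditions: 96-well plates. Treatment: test compound, 48 hours, 5 concentrations. Analysis: linear interpolation between bracketing concentrations; unreached endpoints set to highest concentration. At the TGI there is no net growth.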

Consider `O=C1CC2CCN(C(=O)c3ccccc3)CC2CCN1` (stereo not drawn), for which the TGI in [1], in test [2], in test [3], in test [4], in [5] and in test [6] was above 100 µM throughout. The TGI in test [7] is 60.2 µM; in test [8], above 100 µM; in test [9], above 100 µM.
On to `CC1COS(=O)O1` (stereo not drawn), for which the TGI in test [1], in test [2], in test [3], in [4], in test [5] and in test [6] was above 100 µM each time. The TGI in [7], in test [8] and in test [9] was above 100 µM in each case.
As to `O=C1c2ccc3c4ccccc4n(-c4ccccc4)c3c2C(=O)N1c1ccc(Cl)cc1`, the TGI in test [1], in [2], in test [3], in test [4], in test [5] and in test [6] was above 100 µM each time. Further, the TGI in test [7], in test [8] and in [9] was above 100 µM throughout.
As to `COc1cc(/C=C/C(=O)Oc2ccccc2)ccc1C(=O)O/C=C/c1ccccc1`, the TGI in [10], in test [1], in [2], in [3], in test [4] and in test [5] was above 100 µM in each case. The TGI in [6], in test [7], in [8] and in [9] was above 100 µM throughout.
In the case of `COc1cc2c(cc1OC)C1Cc3cc(OC)c(OC)cc3N1CC2` (stereo not drawn), the TGI in test [1] is above 100 µM; in test [2], above 100 µM; in test [4], above 100 µM; in test [5], above 100 µM; in test [6], 54.4 µM; in test [7] it was above 100 µM. Further, the TGI in test [8] and in test [9] was above 100 µM each time.
In the case of `Nc1ccc(C2=N/C(=C\c3cccc(N)c3)C(=O)O2)cc1`, the TGI in test [1], in [2], in test [3], in test [4], in test [5] and in test [6] was above 100 µM throughout. The TGI in test [7] and in test [8] was above 100 µM each time.
In the case of `Cc1ccc(C)c(N2C(=O)C(=O)C(c3nc4ccccc4o3)/C(=N\NC(=O)c3ccccc3O)C2=O)c1` (stereo not drawn), the TGI in test [1] is above 100 µM; in test [2], above 100 µM; in test [3] it was above 100 µM; in test [4], 85.6 µM; in test [5], above 100 µM; in test [6] it was above 100 µM. Moreover, the TGI in test [7], in test [8] and in test [9] was above 100 µM each time.
As to `COc1cc(/C=N\O[Si](C)(C)C(C)(C)C)ccc1O[Si](C)(C)C(C)(C)C`, the TGI in test [1] is above 100 µM; in [2], 56.8 µM; in test [3], 82.3 µM; in test [4], above 100 µM; in [5], above 100 µM; in test [6], above 100 µM. Besides, the TGI in [7], in test [8] and in test [9] was above 100 µM in each case.
In the case of `CCOC(=O)C(C)(c1c(C)[nH]c2ccccc12)c1c(C)[nH]c2ccccc12`, the TGI in test [1] was determined as 75.9 µM; in [2] it was 45.2 µM; in [3], 32.5 µM; in test [4], 42.4 µM; in [5], 31 µM; in test [6], 43 µM. Also, the TGI in test [7] was found to be 38.4 µM; in test [9] it was 28 µM.
Turning to `Cc1c(Cl)cccc1NC(=O)c1cccc([N+](=O)[O-])c1O`, the TGI in test [1] was above 100 µM; in test [2], 78.6 µM; in [3], above 100 µM; in test [4], above 82.7 µM; in test [5], 54.3 µM; in test [6], 38.7 µM. The values for the TGI in test [7], in [8] and in test [9] were 36.9 µM, 97.4 µM and 38.8 µM, respectively.
In the case of `C[Si](C)(C)CN1C(=O)c2ccccc2C1(O)c1ccccc1` (stereo not drawn), the TGI in test [1], in test [2], in test [3], in test [4], in test [5] and in [6] was above 100 µM each time. Further, the TGI in [7], in [8] and in [9] was above 100 µM in each case.
As to `CC12CCC(=O)N1c1cccnc1N2` (stereo not drawn), the TGI in test [1], in test [2], in test [3], in [4], in test [5] and in test [6] was above 100 µM in each case. Further, the TGI in [7], in test [8] and in test [9] was above 100 µM throughout.
`C[P+](C)(C)c1ccccc1`: the TGI in test [1], in test [2], in [3], in test [4], in test [5] and in test [6] was above 100 µM throughout. For the same molecule, the TGI in test [7], in test [8] and in test [9] was above 100 µM each time.
As for `NC(=S)N/N=C1\CCCC\C1=C/c1ccccc1`, the TGI in test [1], in test [2], in test [3], in test [4], in [5] and in test [6] was above 100 µM throughout. For the same molecule, the TGI in [7] was above 100 µM; in [8], above 100 µM; in test [9], 44.4 µM.
Turning to `CCOc1ccc(N=Cc2c3ccccc3nc3ccccc23)cc1`, the TGI in test [1], in [2], in [3], in [4], in [5] and in test [6] was above 100 µM in each case. Also, the TGI in test [7], in [8] and in test [9] was above 100 µM throughout.
